From ChEMBL document CHEMBL1781959, “Synthesis and in vitro antitumor activity of substituted quinazoline and quinoxaline derivatives: search for anticancer agent” (Eur J Med Chem, 2011)

What follows are molecules tested on SNB-75 (assay: Anticancer activity against human SNB75 cells assessed as cell growth promotion at 10^-5 M after 48 hrs by SRB assay relative to control).
Assay type: functional
With `O=c1c2ccccc2nc(-c2ccco2)n1O` the Activity was 86.97%. Molecule `O=C(O)c1ccc(-n2c(-c3ccco3)nc3ccccc3c2=O)cc1` has an Activity of 89.2%. `NS(=O)(=O)c1ccc(NC(=O)c2ccccc2NC(=O)c2ccco2)cc1` gave an Activity of 87.71%.

What follows are molecules tested on SK-MEL-2 (assay: Anticancer activity against human SK-MEL-2 cells assessed as cell growth promotion at 10^-5 M after 48 hrs by SRB assay relative to control).
Assay type: functional
Molecule `O=c1c2ccccc2nc(-c2ccco2)n1O` has an Activity of 103.59%. With `O=C(O)c1ccc(-n2c(-c3ccco3)nc3ccccc3c2=O)cc1` the Activity was 93.19%. `NS(=O)(=O)c1ccc(NC(=O)c2ccccc2NC(=O)c2ccco2)cc1` was tested, and the Activity was 115.3%.

These molecules were tested on A549 (assay: Anticancer activity against human A549 cells assessed as cell growth promotion at 10^-5 M after 48 hrs by SRB assay relative to control).
Assay type: functional
Molecule `O=c1c2ccccc2nc(-c2ccco2)n1O` has an Activity of 113.82%. Work on `O=C(O)c1ccc(-n2c(-c3ccco3)nc3ccccc3c2=O)cc1` yielded an Activity of 104.77%. Work on `NS(=O)(=O)c1ccc(NC(=O)c2ccccc2NC(=O)c2ccco2)cc1` yielded an Activity of 106.3%.

What follows are molecules tested on ACHN (assay: Anticancer activity against human ACHN cells assessed as cell growth promotion at 10^-5 M after 48 hrs by SRB assay relative to control).
Assay type: functional
For `O=c1c2ccccc2nc(-c2ccco2)n1O`, the Activity was 98.81%. `O=C(O)c1ccc(-n2c(-c3ccco3)nc3ccccc3c2=O)cc1` gave an Activity of 101.24%. With `NS(=O)(=O)c1ccc(NC(=O)c2ccccc2NC(=O)c2ccco2)cc1` the Activity was 101%.

These molecules were tested on SF-295 (assay: Anticancer activity against human SF295 cells assessed as cell growth promotion at 10^-5 M after 48 hrs by SRB assay relative to control).
Assay type: functional
Work on `O=c1c2ccccc2nc(-c2ccco2)n1O` yielded an Activity of 117.66%. Molecule `O=C(O)c1ccc(-n2c(-c3ccco3)nc3ccccc3c2=O)cc1` has an Activity of 108.58%. `NS(=O)(=O)c1ccc(NC(=O)c2ccccc2NC(=O)c2ccco2)cc1` showed an Activity of 103.8%.

These molecules were tested on HCC 2998 (assay: Anticancer activity against human HCC2998 cells assessed as cell growth promotion at 10^-5 M after 48 hrs by SRB assay relative to control).
Assay type: functional
With `O=c1c2ccccc2nc(-c2ccco2)n1O` the Activity was 119.5%. In the case of `O=C(O)c1ccc(-n2c(-c3ccco3)nc3ccccc3c2=O)cc1`, the Activity is reported as 120.31%. `NS(=O)(=O)c1ccc(NC(=O)c2ccccc2NC(=O)c2ccco2)cc1` was tested, and the Activity was 103.3%.

What follows are molecules tested on TK-10 (assay: Anticancer activity against human TK10 cells assessed as cell growth promotion at 10^-5 M after 48 hrs by SRB assay relative to control).
Assay type: functional
`O=c1c2ccccc2nc(-c2ccco2)n1O` was tested, and the Activity was 98.03%. `O=C(O)c1ccc(-n2c(-c3ccco3)nc3ccccc3c2=O)cc1` gave an Activity of 94.73%. For `NS(=O)(=O)c1ccc(NC(=O)c2ccccc2NC(=O)c2ccco2)cc1`, the Activity was 102%.

What follows are molecules tested on SK-MEL-28 (assay: Anticancer activity against human SK-MEL-28 cells assessed as cell growth promotion at 10^-5 M after 48 hrs by SRB assay relative to control).
Assay type: functional
In the case of `O=c1c2ccccc2nc(-c2ccco2)n1O`, the Activity is reported as 109.58%. Work on `O=C(O)c1ccc(-n2c(-c3ccco3)nc3ccccc3c2=O)cc1` yielded an Activity of 115.08%. For `NS(=O)(=O)c1ccc(NC(=O)c2ccccc2NC(=O)c2ccco2)cc1`, the Activity was 107.1%.

Each molecule was assayed on LOX IMVI (assay: Anticancer activity against human LOXIMVI cells assessed as cell growth promotion at 10^-5 M after 48 hrs by SRB assay relative to control).
Assay type: functional
In the case of `O=c1c2ccccc2nc(-c2ccco2)n1O`, the Activity is reported as 107.97%. With `O=C(O)c1ccc(-n2c(-c3ccco3)nc3ccccc3c2=O)cc1` the Activity was 98.82%. In the case of `NS(=O)(=O)c1ccc(NC(=O)c2ccccc2NC(=O)c2ccco2)cc1`, the Activity is reported as 101.6%.

These molecules were tested on IGROV-1 (assay: Anticancer activity against human IGROV1 cells assessed as cell growth promotion at 10^-5 M after 48 hrs by SRB assay relative to control).
Assay type: functional
Molecule `O=c1c2ccccc2nc(-c2ccco2)n1O` has an Activity of 103.91%. With `O=C(O)c1ccc(-n2c(-c3ccco3)nc3ccccc3c2=O)cc1` the Activity was 91.67%. With `NS(=O)(=O)c1ccc(NC(=O)c2ccccc2NC(=O)c2ccco2)cc1` the Activity was 117%.

The molecules below were run on NCI-H522 (assay: Anticancer activity against human NCI-H522 cells assessed as cell growth promotion at 10^-5 M after 48 hrs by SRB assay relative to control).
Assay type: functional
In the case of `O=C(O)c1ccc(-n2c(-c3ccco3)nc3ccccc3c2=O)cc1`, the Activity is reported as 109.67%. `NS(=O)(=O)c1ccc(NC(=O)c2ccccc2NC(=O)c2ccco2)cc1` gave an Activity of 90.78%.

What follows are molecules tested on COLO 205 (assay: Anticancer activity against human COLO205 cells assessed as cell growth promotion at 10^-5 M after 48 hrs by SRB assay relative to control).
Assay type: functional
`O=c1c2ccccc2nc(-c2ccco2)n1O` gave an Activity of 107.29%. For `O=C(O)c1ccc(-n2c(-c3ccco3)nc3ccccc3c2=O)cc1`, the Activity was 103.97%.

These molecules were tested on MCF7 (assay: Anticancer activity against human MCF7 cells assessed as cell growth promotion at 10^-5 M after 48 hrs by SRB assay relative to control).
Assay type: functional
Molecule `O=c1c2ccccc2nc(-c2ccco2)n1O` has an Activity of 103.51%. In the case of `O=C(O)c1ccc(-n2c(-c3ccco3)nc3ccccc3c2=O)cc1`, the Activity is reported as 63.47%. For `NS(=O)(=O)c1ccc(NC(=O)c2ccccc2NC(=O)c2ccco2)cc1`, the Activity was 95.61%.

Each molecule was assayed on PC-3 (assay: Anticancer activity against human PC3 cells assessed as cell growth promotion at 10^-5 M after 48 hrs by SRB assay relative to control).
Assay type: functional
Molecule `O=c1c2ccccc2nc(-c2ccco2)n1O` has an Activity of 91.05%. Molecule `O=C(O)c1ccc(-n2c(-c3ccco3)nc3ccccc3c2=O)cc1` has an Activity of 86.25%. `NS(=O)(=O)c1ccc(NC(=O)c2ccccc2NC(=O)c2ccco2)cc1` was tested, and the Activity was 118%.

What follows are molecules tested on NCI-H226 (assay: Anticancer activity against human NCI-H226 cells assessed as cell growth promotion at 10^-5 M after 48 hrs by SRB assay relative to control).
Assay type: functional
Molecule `O=c1c2ccccc2nc(-c2ccco2)n1O` has an Activity of 97.88%. For `O=C(O)c1ccc(-n2c(-c3ccco3)nc3ccccc3c2=O)cc1`, the Activity was 78.42%. `NS(=O)(=O)c1ccc(NC(=O)c2ccccc2NC(=O)c2ccco2)cc1` gave an Activity of 114.6%.

The molecules below were run on OVCAR-8 (assay: Anticancer activity against human OVCAR8 cells assessed as cell growth promotion at 10^-5 M after 48 hrs by SRB assay relative to control).
Assay type: functional
Work on `O=c1c2ccccc2nc(-c2ccco2)n1O` yielded an Activity of 110.28%. In the case of `O=C(O)c1ccc(-n2c(-c3ccco3)nc3ccccc3c2=O)cc1`, the Activity is reported as 104.87%. With `NS(=O)(=O)c1ccc(NC(=O)c2ccccc2NC(=O)c2ccco2)cc1` the Activity was 103%.

These molecules were tested on DU-145 (assay: Anticancer activity against human DU145 cells assessed as cell growth promotion at 10^-5 M after 48 hrs by SRB assay relative to control).
Assay type: functional
Molecule `O=c1c2ccccc2nc(-c2ccco2)n1O` has an Activity of 122.21%. `O=C(O)c1ccc(-n2c(-c3ccco3)nc3ccccc3c2=O)cc1` was tested, and the Activity was 111.42%. Molecule `NS(=O)(=O)c1ccc(NC(=O)c2ccccc2NC(=O)c2ccco2)cc1` has an Activity of 113%.

These molecules were tested on BT-549 (assay: Anticancer activity against human BT549 cells assessed as cell growth promotion at 10^-5 M after 48 hrs by SRB assay relative to control).
Assay type: functional
For `O=c1c2ccccc2nc(-c2ccco2)n1O`, the Activity was 103.7%. With `O=C(O)c1ccc(-n2c(-c3ccco3)nc3ccccc3c2=O)cc1` the Activity was 100.59%. In the case of `NS(=O)(=O)c1ccc(NC(=O)c2ccccc2NC(=O)c2ccco2)cc1`, the Activity is reported as 111%.

Each molecule was assayed on MDA-MB-468 (assay: Anticancer activity against human MDA-MB-468 cells assessed as cell growth promotion at 10^-5 M after 48 hrs by SRB assay relative to control).
Assay type: functional
For `O=c1c2ccccc2nc(-c2ccco2)n1O`, the Activity was 115.34%. With `O=C(O)c1ccc(-n2c(-c3ccco3)nc3ccccc3c2=O)cc1` the Activity was 101.43%. In the case of `NS(=O)(=O)c1ccc(NC(=O)c2ccccc2NC(=O)c2ccco2)cc1`, the Activity is reported as 106%.

Each molecule was assayed on OVCAR-4 (assay: Anticancer activity against human OVCAR4 cells assessed as cell growth promotion at 10^-5 M after 48 hrs by SRB assay relative to control).
Assay type: functional
`O=c1c2ccccc2nc(-c2ccco2)n1O` showed an Activity of 114.55%. `O=C(O)c1ccc(-n2c(-c3ccco3)nc3ccccc3c2=O)cc1` gave an Activity of 100.6%. In the case of `NS(=O)(=O)c1ccc(NC(=O)c2ccccc2NC(=O)c2ccco2)cc1`, the Activity is reported as 98%.

What follows are molecules tested on SF-539 (assay: Anticancer activity against human SF539 cells assessed as cell growth promotion at 10^-5 M after 48 hrs by SRB assay relative to control).
Assay type: functional
Molecule `O=c1c2ccccc2nc(-c2ccco2)n1O` has an Activity of 95.42%. For `O=C(O)c1ccc(-n2c(-c3ccco3)nc3ccccc3c2=O)cc1`, the Activity was 104.2%. With `NS(=O)(=O)c1ccc(NC(=O)c2ccccc2NC(=O)c2ccco2)cc1` the Activity was 86.82%.
